Assay results from ChEMBL document CHEMBL4825743, “Novel Substituted Heterocyclic and Heteroaryl Compounds for Treating Huntington's Disease” (ACS Med Chem Lett, 2021).

Molecular target: Huntingtin (Homo sapiens, UniProt P42858)
Assay: Inhibition of Huntingtin protein (unknown origin) incubated for overnight in presence of MW1/MAB2166 monoclonal antibody by ELISA-based MSD electrochemiluminescence assay

Sequence of Huntingtin (P42858 whole entry): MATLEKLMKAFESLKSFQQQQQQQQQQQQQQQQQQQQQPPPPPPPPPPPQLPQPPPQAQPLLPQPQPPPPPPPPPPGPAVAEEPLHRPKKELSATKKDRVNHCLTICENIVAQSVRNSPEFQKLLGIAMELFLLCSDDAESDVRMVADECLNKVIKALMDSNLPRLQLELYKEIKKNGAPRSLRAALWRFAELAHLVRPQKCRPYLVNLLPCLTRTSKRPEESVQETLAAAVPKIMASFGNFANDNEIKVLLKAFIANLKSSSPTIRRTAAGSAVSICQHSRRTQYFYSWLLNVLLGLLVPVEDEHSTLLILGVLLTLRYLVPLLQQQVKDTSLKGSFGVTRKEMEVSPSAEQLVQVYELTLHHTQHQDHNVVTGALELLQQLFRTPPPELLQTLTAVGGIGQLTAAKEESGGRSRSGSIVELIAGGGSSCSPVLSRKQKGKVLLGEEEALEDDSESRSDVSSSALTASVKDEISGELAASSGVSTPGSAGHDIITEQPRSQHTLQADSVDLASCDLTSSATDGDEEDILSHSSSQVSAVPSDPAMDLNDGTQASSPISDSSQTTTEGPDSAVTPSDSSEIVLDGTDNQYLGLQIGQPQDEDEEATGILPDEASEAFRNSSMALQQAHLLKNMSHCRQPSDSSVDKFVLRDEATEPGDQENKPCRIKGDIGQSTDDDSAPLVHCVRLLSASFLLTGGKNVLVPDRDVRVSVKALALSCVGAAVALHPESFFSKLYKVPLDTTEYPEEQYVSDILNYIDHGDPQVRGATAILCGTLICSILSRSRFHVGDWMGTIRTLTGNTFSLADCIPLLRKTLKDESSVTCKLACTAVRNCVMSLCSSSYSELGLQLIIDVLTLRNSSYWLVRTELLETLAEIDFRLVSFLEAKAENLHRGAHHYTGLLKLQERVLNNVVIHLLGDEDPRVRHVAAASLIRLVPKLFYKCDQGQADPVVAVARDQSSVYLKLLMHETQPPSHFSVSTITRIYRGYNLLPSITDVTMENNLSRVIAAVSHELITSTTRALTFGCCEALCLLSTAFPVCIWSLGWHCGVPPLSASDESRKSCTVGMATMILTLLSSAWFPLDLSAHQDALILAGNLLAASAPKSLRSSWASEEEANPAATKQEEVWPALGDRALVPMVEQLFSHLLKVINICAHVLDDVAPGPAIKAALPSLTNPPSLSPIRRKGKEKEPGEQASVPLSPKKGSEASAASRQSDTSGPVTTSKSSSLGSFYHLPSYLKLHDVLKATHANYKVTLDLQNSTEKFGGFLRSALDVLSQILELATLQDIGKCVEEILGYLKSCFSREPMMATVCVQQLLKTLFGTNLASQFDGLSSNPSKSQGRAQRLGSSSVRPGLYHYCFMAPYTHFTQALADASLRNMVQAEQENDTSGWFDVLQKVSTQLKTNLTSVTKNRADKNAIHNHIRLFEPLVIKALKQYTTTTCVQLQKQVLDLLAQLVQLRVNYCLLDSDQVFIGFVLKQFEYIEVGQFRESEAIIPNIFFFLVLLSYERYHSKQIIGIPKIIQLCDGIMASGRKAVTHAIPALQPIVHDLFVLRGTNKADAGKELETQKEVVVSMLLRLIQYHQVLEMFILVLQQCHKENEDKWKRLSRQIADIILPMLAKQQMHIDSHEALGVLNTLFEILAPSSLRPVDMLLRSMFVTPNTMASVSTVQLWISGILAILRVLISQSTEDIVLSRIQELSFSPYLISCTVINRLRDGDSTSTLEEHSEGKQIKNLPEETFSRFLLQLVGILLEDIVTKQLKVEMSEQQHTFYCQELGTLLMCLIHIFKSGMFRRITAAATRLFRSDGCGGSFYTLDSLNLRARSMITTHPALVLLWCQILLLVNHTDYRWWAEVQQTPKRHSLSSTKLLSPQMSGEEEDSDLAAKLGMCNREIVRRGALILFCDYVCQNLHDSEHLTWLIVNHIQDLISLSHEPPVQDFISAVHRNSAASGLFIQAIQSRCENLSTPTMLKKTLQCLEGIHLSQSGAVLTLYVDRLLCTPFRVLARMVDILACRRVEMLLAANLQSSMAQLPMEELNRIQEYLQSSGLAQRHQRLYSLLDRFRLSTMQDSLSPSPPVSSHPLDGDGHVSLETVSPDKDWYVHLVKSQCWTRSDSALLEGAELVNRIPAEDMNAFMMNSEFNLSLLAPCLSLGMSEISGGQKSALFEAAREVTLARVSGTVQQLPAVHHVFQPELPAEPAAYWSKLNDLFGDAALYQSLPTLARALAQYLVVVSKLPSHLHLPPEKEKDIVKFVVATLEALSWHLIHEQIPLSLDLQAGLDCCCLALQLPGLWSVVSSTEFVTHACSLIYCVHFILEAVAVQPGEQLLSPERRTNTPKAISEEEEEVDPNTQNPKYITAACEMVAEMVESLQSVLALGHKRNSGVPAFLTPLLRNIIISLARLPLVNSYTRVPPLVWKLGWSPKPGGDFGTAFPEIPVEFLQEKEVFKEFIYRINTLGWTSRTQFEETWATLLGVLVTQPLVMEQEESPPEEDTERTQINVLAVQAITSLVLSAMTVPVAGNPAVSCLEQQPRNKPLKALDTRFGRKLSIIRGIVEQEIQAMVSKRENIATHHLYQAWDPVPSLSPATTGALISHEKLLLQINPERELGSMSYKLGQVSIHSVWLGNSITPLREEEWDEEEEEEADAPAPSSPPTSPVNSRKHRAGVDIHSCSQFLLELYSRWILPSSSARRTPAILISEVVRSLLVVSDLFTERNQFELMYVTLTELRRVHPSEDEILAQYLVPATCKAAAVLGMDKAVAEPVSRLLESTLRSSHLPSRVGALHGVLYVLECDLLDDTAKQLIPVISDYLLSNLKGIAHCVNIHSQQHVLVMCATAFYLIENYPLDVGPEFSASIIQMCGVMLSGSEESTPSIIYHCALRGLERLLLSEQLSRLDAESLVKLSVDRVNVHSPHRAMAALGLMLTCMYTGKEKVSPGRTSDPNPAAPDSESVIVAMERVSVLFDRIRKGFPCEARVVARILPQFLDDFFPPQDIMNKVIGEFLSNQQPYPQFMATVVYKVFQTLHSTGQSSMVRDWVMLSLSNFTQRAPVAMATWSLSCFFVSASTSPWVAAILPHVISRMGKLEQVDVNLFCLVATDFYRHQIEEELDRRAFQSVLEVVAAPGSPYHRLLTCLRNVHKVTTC

IC50, ≤ 100 nM:
CC1(C)CC(n2nnc3cc(-c4ccc(-c5nncs5)cc4O)nnc32)CC(C)(C)N1
CC1(C)CC(n2nnc3cc(-c4ccc(-c5nccs5)cc4O)nnc32)CC(C)(C)N1
CC1(C)CC(n2nnc3cc(-c4ccc(-c5ncco5)cc4O)nnc32)CC(C)(C)N1
COc1ncnc(-c2ccc(-c3cc4nnn(C5CC(C)(C)NC(C)(C)C5)c4nn3)c(O)c2)n1
CC1(C)CC(n2nnc3cc(-c4ccc(-n5nccn5)cc4O)nnc32)CC(C)(C)N1 [VOTOPLAM]
CC1(C)C=C(c2csc3cc(-c4ccc(-c5cn[nH]c5)cc4O)nnc23)CC(C)(C)N1
